Results on 2 substances are retold here after patent US20210077585A1, “METHOD OF TREATMENT OF IMMUNE CHECKPOINT INHIBITOR-RELATED IMMUNE ADVERSE EFFECTS” (priority 2019, published 2021).

Entries after “also recorded” stand apart in the source; their conditions may differ. No end group written: not given here.

One assay relates to B16 melanoma. The assay can be described thus: Tumor challenge with B16 melanoma under anti-CTLA-4 mAb. The conditions noted are these: 100 μg anti-CTLA-4 mAb days 0, 6, 10 with Tα1 200 μg/kg i.p.; FIG. 2E. The format is in vivo, mice. The method, then: B16-F0 (ATCC® CRL-6322™ were cultured in RPMI Medium1640 (Gibco, Life Technologies, USA) containing 10% FBS (Gibco, USA), 100 U/mL penicillin, and 100 μg/mL streptomycin, at 37° C. in a humidified atmosphere of 5% CO2. 2×10^5 B16 tumor cells were subcutaneously injected into the right flanks of the mice. The mice were injected intraperitoneally with 100 μg of anti-CTLA-4 mAb, at 0, 6, and 10 days post-tumor implantation and concomitantly with Tα1 at 200 μg/kg intraperitoneally. Tumor size was measured with a caliper and calculated as described (Wang et al., 2019).

Assay [1] relates to murine dextran sodium sulfate (DSS)-induced colitis. The assay can be described thus: Dextran sodium sulfate (DSS)-induced colitis in mice. The format is in vivo, C57BL6 mice. The method, then: (§1) Inbred C57BL6 mice, 8 to 12 weeks old, were purchased from Charles River Breeding Laboratories (Calco, Italy). Experiments were performed following protocols approved by the institutional animal committee and in accordance with European Economic Community Council Directive as well as institutional animal care and use guidelines.
DSS is a water soluble, negatively charged sulfated polysaccharide with a highly variable molecular weight ranging from 5 to 1400 kDa. Murine colitis results from administration of 40-50 kDa DSS added to drinking water. […] We have added 40-50 kDa DSS to sterilized drinking water at 3% for a period of 6 days to induce acute colitis. Concomitantly, Tα1 at 200 μg/kg was intraperitoneally injected daily, as illustrated in FIG. 1A. Control mice receive vehicle alone. Surviving mice were sacrificed at 10 days after the initiation of colitis.
(§2) In both models, animals were monitored daily for appearance of diarrhea, fecal blood, loss of body weight and survival. At the end of the experiment, surviving mice were sacrificed, the colon was excised, and evaluated for macroscopic damage and local immune parameters
(§3) Freshly isolated colons were fixed in formalin and embedded in paraffin. H&E staining was performed using a standard protocol. For the quantitative histological analysis, five criteria were used to grade each section of the intestine: (i) severity of inflammation, (ii) percent of area affected by inflammation, (iii) degree of hyperplasia, (iv) depth of the lesion, and (v) ulceration.
The levels of cytokines in the colon homogenates were determined by specific ELISA (R&D Systems).
(§4) Student's t-test, one- or two-way ANOVA with Bonferroni post-hoc test were used to determine the statistical significance. Significance was defined as p<0.05. Data are pooled results (mean±SEM) or representative images from three experiments.

Assay [2] relates to murine model of checkpoint inhibitor-mediated colitis (CIC). Nature of the assay: Checkpoint inhibitor-mediated colitis (CIC) model (DSS + anti-CTLA-4 mAb) in mice. The class given is in vivo, C57BL6 mice. The method, then:
as §1
The mice received 3% DSS in their drinking water for 8 days and 100 μg of anti-CTLA-4 mAb (BioXcell, USA) or isotype control antibody intraperitoneally at the beginning of the experiment (day 0) and 4 days after (day +4). Surviving mice were sacrificed at 16 days. Tα1 at 200 μg/kg was intraperitoneally injected every other day, as illustrated in FIG. 2A.
as §2, §3, §4

For assay [3] the following is noted: steroid and infliximab refractory cases; recent reports; cited from earlier work.
Where [4] appears, read: ELISA of colon homogenates, FIG. 1F.

“Thymosin alpha 1 (Ac-SDAAVDTSSEITTKDLKEKKEVVEEAEN; UniProt P06454 2-29, looked up) [Tα1, naturally-occurring polypeptide of 28 amino acid; from CRIBI Biotechnology, supplied as purified sterile, lyophilized, acetylated polypeptide]”: the “growth kinetics of B16 melanoma tumors / antitumoral efficacy afforded by anti-CTLA-4 mAb” value with B16 melanoma is reported as “does not affect the antitumoral efficacy; also recorded: did not affect the growth kinetics of the tumors”. Besides, the “loss of body weight” value is “prevented the loss of body weight” in assay [1] (3% DSS 6 days, Tα1 200 μg/kg intraperitoneally daily, FIG. 1B) and “not significantly prevented” in assay [2] (CIC model (3% DSS 8 days + anti-CTLA-4 mAb), Tα1 200 μg/kg i.p. every other day, FIG. 2B). Besides, the “production of IL-10 in the colon” value in assay [1] (ELISA of colon homogenates, FIG. 1E) is “induced”. In assay [1] (setting [4]), the “production of pro-inflammatory cytokine IL-1S” value is given as “decreased the production”. In addition, the “production of pro-inflammatory cytokine IL-17A” value in assay [1] (setting [4]) is recorded as “decreased the production”. In addition, the “expression of IDO1 in the colon” value in assay [1] (RT-PCR, at sacrifice, FIG. 1E) is “induced the expression of IDO1”. Also, the survival of mice result in assay [1] (Tα1 200 μg/kg i.p. daily, FIG. 1C) is “increased survival of mice”; in assay [2] (CIC model, Tα1 200 μg/kg i.p. every other day, FIG. 2C) it was “significantly increased the survival of mice”. The colon histopathology entry in assay [1] (Tα1 200 μg/kg i.p. daily, at sacrifice, FIG. 1D) is reported as “ameliorated colon histopathology”. The “architecture structure of the colon in surviving mice” value in assay [2] (CIC model, compared to untreated animals, FIG. 2D) is “recovery of the normal architecture structure of the colon”. Further, in assay [2] (CIC model, time at which untreated mice have all died, FIG. 2C), the “mice surviving at 16 days post initiation of colitis” value is “majority of mice surviving”.

Take “Vedolizumab: therapy reported as more gut specific and efficacious in steroid and infliximab refractory checkpoint inhibitor colitis”: the “efficacy in refractory CIC” value in assay [3] was “efficacious in steroid and infliximab refractory cases”.
